Among the data in ChEMBL document CHEMBL5291721, “A preclinical secondary pharmacology resource illuminates target-adverse drug reaction associations of marketed drugs” (Nat Commun, 2023) are AC50 values, retold here.

Some targets named below: Motilin receptor (Homo sapiens, UniProt O43193); Melanocortin receptor 3 (Homo sapiens, UniProt P41968); D(3) dopamine receptor (Homo sapiens, UniProt P35462); Adenosine receptor A2a (Homo sapiens, UniProt P29274); Vasopressin V2 receptor (Homo sapiens, UniProt P30518).
The target in assay [1] is T1, Alpha-2A adrenergic receptor (Homo sapiens, UniProt P08913).
T1 sequence (P08913 whole entry): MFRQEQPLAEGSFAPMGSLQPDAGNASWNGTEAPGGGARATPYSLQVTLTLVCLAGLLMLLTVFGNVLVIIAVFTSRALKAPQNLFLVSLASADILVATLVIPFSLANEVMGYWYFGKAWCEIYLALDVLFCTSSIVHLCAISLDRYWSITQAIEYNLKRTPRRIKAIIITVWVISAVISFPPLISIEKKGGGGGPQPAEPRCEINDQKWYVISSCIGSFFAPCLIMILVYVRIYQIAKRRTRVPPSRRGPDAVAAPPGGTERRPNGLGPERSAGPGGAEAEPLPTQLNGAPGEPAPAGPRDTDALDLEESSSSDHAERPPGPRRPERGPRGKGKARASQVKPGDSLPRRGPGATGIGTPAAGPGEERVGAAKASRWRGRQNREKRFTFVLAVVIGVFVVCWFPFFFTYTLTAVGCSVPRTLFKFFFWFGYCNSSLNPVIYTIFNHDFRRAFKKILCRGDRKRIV
It is filed as functional, cell-based.

For assay [2], the target named is T2, Amine oxidase [flavin-containing] A (Homo sapiens, UniProt P21397).
T2 sequence (P21397 whole entry): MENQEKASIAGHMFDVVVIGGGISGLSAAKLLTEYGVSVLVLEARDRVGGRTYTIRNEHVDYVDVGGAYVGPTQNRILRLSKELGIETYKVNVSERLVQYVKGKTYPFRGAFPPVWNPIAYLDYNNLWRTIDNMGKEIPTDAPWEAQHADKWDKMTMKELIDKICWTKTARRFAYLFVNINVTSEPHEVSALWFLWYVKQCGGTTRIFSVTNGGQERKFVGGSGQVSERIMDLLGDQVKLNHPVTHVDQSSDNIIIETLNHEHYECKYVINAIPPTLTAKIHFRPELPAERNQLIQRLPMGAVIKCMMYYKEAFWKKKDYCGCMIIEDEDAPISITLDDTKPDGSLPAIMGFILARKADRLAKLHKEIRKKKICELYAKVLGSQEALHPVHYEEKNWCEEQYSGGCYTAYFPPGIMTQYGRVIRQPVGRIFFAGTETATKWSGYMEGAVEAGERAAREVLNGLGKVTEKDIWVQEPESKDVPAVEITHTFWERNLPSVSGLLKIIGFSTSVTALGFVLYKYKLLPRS
The assay is classed as functional.

Assay [3] deals with Voltage-gated inwardly rectifying potassium channel KCNH2 (Homo sapiens, UniProt Q12809). It is filed as functional.
The target of assay [4] is Growth hormone secretagogue receptor type 1 (Homo sapiens, UniProt Q92847).
In assay [5] the target is T3, Type-1 angiotensin II receptor (Homo sapiens, UniProt P30556).
T3 sequence (P30556 whole entry): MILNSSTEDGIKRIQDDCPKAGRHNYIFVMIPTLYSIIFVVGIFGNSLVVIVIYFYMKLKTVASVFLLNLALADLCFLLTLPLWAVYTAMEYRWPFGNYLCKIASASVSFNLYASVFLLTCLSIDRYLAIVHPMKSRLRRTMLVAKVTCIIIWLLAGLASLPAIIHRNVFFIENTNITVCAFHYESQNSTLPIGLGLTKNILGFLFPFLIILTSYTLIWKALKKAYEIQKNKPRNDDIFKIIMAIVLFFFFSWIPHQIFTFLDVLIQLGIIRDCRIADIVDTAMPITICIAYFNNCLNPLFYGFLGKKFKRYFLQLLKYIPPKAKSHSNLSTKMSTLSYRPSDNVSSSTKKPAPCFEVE

The target of assay [6] is Sodium-dependent noradrenaline transporter (Homo sapiens, UniProt P23975).
The target in another assay is T4, B2 bradykinin receptor (Homo sapiens, UniProt P30411).
T4 sequence (P30411 whole entry): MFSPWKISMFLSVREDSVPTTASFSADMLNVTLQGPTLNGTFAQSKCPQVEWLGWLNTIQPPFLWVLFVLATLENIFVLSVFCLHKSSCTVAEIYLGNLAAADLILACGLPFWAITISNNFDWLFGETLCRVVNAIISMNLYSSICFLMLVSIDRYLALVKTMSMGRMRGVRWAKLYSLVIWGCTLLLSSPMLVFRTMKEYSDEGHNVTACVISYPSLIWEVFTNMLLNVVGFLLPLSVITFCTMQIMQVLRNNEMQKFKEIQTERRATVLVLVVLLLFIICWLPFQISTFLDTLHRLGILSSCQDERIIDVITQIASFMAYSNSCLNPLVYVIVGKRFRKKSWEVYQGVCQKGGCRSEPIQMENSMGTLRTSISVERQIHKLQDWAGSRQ

For assay [7], the target named is Neuronal acetylcholine receptor subunit alpha-4 (Homo sapiens, UniProt P43681).
Assay [8] concerns the target T5, Neuropeptide Y receptor type 1 (Homo sapiens, UniProt P25929).
T5 sequence (P25929 whole entry): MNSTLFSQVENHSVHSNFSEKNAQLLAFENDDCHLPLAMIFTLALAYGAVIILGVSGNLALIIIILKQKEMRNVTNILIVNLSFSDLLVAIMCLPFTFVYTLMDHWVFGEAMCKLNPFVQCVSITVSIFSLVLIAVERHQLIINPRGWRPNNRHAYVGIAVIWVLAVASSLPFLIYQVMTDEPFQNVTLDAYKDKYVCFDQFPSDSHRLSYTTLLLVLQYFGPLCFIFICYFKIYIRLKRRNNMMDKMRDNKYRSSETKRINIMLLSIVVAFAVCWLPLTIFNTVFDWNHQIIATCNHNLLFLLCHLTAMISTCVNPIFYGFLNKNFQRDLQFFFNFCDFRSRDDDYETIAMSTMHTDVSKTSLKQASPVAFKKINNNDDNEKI
Conditions: read-out: AC50.

The target in assay [9] is Delta-type opioid receptor (Homo sapiens, UniProt P41143).

Where only a bound is given, the exact number is not on record here.
Further: assay procedure not described here.

Growth hormone secretagogue receptor type 1, sequence (Q92847 whole entry): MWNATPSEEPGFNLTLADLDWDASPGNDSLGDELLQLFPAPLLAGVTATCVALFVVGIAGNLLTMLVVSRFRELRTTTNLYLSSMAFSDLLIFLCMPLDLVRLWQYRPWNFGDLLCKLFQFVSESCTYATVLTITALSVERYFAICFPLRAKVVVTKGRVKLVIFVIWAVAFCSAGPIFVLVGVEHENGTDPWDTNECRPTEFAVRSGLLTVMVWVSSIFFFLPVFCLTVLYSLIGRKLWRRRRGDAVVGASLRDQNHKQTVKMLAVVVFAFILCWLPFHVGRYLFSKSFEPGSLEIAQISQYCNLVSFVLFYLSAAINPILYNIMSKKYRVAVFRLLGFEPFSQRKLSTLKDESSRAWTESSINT
Voltage-gated inwardly rectifying potassium channel KCNH2, sequence (Q12809 whole entry): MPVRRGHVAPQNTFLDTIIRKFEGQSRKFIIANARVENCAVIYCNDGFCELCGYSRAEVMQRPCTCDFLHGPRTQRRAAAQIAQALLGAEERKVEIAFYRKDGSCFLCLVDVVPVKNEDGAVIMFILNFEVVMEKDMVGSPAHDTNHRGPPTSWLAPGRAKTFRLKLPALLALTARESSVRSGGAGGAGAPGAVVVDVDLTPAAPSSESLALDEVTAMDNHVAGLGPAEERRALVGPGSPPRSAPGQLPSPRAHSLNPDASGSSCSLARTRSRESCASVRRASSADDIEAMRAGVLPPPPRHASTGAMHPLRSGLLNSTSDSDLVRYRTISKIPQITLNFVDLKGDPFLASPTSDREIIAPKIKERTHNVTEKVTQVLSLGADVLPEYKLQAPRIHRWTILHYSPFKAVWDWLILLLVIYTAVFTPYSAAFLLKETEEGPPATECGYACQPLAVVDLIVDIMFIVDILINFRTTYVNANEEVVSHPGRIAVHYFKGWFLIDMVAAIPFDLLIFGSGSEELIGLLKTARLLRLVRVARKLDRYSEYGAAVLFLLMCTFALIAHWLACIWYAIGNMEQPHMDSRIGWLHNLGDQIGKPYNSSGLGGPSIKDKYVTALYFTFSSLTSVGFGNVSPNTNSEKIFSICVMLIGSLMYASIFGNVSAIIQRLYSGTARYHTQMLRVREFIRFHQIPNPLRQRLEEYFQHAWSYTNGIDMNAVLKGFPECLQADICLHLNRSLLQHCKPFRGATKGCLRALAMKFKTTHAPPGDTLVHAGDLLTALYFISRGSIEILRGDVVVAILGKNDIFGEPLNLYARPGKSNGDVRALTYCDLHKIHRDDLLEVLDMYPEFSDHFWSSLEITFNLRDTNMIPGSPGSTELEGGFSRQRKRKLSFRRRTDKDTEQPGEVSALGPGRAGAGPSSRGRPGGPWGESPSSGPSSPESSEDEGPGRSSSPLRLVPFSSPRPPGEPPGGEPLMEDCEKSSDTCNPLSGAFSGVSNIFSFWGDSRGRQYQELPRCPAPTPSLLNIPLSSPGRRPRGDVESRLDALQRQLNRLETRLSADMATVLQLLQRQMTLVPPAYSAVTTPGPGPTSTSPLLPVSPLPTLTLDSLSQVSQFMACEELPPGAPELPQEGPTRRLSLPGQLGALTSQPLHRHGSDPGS
Vasopressin V2 receptor, sequence (P30518 whole entry): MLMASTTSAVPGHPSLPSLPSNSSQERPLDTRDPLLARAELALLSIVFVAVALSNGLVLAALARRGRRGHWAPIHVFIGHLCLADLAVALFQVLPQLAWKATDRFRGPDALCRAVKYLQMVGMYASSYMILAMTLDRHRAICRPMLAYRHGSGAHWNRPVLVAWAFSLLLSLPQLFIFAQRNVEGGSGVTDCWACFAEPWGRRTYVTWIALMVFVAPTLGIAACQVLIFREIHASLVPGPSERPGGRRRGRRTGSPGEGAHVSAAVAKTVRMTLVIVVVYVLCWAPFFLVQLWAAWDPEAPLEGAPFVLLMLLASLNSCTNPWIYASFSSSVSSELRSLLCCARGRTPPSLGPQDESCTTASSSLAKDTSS
Sodium-dependent noradrenaline transporter, sequence (P23975 whole entry): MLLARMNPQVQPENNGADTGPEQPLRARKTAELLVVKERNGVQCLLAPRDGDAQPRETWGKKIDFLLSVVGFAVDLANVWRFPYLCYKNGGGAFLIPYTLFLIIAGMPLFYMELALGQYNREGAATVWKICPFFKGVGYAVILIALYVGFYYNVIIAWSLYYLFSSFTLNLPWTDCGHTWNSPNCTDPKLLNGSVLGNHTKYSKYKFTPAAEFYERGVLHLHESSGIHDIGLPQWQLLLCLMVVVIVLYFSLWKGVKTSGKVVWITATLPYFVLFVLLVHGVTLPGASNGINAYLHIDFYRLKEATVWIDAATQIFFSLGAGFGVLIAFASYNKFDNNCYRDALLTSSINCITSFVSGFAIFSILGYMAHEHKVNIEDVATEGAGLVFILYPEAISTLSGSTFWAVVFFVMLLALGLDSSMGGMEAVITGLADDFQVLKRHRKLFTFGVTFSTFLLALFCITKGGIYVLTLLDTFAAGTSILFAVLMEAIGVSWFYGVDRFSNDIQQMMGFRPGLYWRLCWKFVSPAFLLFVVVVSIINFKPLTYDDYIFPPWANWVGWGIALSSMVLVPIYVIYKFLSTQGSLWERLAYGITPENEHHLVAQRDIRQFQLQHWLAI
Neuronal acetylcholine receptor subunit alpha-4, sequence (P43681 whole entry): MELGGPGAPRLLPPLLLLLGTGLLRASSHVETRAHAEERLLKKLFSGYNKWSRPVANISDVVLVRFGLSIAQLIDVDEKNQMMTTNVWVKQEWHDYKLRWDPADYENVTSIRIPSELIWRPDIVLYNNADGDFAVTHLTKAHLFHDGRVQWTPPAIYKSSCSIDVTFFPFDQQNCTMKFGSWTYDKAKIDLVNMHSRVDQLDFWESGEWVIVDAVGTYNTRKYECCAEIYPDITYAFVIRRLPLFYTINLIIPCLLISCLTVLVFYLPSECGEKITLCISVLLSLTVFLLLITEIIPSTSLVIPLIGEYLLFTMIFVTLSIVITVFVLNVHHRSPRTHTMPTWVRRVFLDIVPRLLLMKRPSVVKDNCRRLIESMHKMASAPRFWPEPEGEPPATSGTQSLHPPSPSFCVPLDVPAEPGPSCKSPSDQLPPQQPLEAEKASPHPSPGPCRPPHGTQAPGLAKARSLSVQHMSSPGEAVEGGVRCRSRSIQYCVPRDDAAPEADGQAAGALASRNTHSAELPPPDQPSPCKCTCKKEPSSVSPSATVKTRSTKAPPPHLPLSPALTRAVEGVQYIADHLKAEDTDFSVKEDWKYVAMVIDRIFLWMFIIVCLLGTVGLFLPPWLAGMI
Adenosine receptor A2a, sequence (P29274 whole entry): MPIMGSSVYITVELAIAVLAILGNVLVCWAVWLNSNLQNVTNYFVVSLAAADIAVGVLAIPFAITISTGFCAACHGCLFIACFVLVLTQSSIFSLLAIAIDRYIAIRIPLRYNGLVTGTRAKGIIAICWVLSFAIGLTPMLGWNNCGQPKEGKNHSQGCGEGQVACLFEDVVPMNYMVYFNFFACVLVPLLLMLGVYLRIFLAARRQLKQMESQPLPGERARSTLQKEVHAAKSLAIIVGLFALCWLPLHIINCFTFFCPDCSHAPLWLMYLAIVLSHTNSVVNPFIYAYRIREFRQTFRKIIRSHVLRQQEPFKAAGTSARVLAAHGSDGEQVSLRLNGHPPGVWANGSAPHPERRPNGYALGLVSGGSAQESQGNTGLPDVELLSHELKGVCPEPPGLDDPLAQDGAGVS
Motilin receptor, sequence (O43193 whole entry): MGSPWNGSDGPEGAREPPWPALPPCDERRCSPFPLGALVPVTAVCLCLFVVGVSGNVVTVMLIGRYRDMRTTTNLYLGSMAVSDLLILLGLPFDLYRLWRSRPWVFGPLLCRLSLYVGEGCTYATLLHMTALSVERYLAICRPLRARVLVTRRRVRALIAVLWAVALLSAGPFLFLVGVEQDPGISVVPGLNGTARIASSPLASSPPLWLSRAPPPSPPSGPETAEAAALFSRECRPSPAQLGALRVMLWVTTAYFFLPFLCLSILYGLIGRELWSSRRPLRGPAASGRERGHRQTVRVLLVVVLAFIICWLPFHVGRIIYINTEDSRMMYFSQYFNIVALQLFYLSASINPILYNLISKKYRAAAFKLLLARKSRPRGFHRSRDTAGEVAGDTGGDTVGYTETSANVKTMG
D(3) dopamine receptor, sequence (P35462 whole entry): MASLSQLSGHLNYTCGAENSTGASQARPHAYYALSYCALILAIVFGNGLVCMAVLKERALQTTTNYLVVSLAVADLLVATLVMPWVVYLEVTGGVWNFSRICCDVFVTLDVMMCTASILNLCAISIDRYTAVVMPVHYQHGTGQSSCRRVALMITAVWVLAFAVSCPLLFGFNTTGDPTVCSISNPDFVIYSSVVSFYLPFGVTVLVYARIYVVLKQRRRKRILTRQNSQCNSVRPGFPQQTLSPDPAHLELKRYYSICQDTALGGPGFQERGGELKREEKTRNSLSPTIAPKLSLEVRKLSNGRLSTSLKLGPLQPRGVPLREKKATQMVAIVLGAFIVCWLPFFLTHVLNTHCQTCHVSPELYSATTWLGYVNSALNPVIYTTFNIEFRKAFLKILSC
Melanocortin receptor 3, sequence (P41968 whole entry): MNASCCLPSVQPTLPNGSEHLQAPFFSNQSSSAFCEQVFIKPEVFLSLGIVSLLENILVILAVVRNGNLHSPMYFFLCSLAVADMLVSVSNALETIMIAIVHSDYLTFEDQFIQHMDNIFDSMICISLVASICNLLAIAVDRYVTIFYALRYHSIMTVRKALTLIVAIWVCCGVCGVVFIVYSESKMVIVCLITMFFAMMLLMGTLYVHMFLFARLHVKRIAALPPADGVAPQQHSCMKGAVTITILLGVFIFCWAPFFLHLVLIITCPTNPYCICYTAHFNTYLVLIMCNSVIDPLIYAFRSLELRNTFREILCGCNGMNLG

Consider `CC(N)C(O)c1ccccc1` (stereo not given) [PHENYLPROPANOLAMINE], for which the half-maximal activity concentration (AC50) in assay [1] is over 10 µM; in assay [2] it was over 10 µM; at Motilin receptor it was over 10 µM; on Melanocortin receptor 3, over 30 µM; in assay [3] it was over 30 µM; in assay [4] it was over 30 µM. The AC50 in assay [5] is over 30 µM; in assay [6], over 30 µM; at B2 bradykinin receptor it was over 30 µM; at D(3) dopamine receptor, over 10 µM; on Adenosine receptor A2a it was over 30 µM; in assay [7], over 10 µM. For the same compound, the half-maximal activity concentration (AC50) in [8] was over 30 µM; in assay [9], over 10 µM; at Vasopressin V2 receptor it was over 30 µM.
Take `Clc1ccc2c(N3CCN(CCCN4CCN(c5ccnc6cc(Cl)ccc56)CC4)CC3)ccnc2c1` [PIPERAQUINE]: the AC50 in assay [1] is over 30 µM; in [2] it was over 30 µM; at Motilin receptor, over 30 µM; at Melanocortin receptor 3, over 30 µM; in assay [3], 2.56 µM; in assay [4] it was over 30 µM. The concentration at half-maximal activity (AC50) is over 30 µM in assay [5]; over 30 µM in assay [6]; over 30 µM on B2 bradykinin receptor; 9 µM on D(3) dopamine receptor; over 30 µM on Adenosine receptor A2a; over 30 µM in assay [7]. In addition, the half-maximal activity concentration (AC50) (in [8]; in assay [9]; on Vasopressin V2 receptor) was over 30 µM in each case.
Take `Cc1noc(NS(=O)(=O)c2ccc(N)cc2)c1C` [SULFISOXAZOLE]: the half-maximal activity concentration (AC50) in assay [1] was over 10 µM; in [2] it was over 10 µM; at Motilin receptor, over 10 µM; at Melanocortin receptor 3, over 10 µM; in assay [3], over 30 µM; in [4] it was over 10 µM. In addition, the AC50 was over 10 µM in [5]; over 10 µM in assay [6]; over 10 µM at B2 bradykinin receptor; over 30 µM at D(3) dopamine receptor; over 10 µM on Adenosine receptor A2a; over 10 µM in assay [7]. Further, the values for the AC50 (in assay [8]; in assay [9]; at Vasopressin V2 receptor) were over 10 µM, over 30 µM and over 10 µM, respectively.
Take `CC1(C)S[C@@H]2[C@H](NC(=O)[C@H](N)c3ccccc3)C(=O)N2[C@H]1C(=O)OCOC(=O)[C@@H]1N2C(=O)C[C@H]2S(=O)(=O)C1(C)C` [SULTAMICILLIN]: the AC50 (in assay [1]; in assay [2]; at Motilin receptor; on Melanocortin receptor 3; in assay [3]; in assay [4]) was over 30 µM throughout. In addition, the concentration at half-maximal activity (AC50) (in [5]; in [6]; on B2 bradykinin receptor; on D(3) dopamine receptor; on Adenosine receptor A2a; in assay [7]) was over 30 µM in each case. Further, the concentration at half-maximal activity (AC50) (in assay [8]; in assay [9]; at Vasopressin V2 receptor) was over 30 µM each time.
For `CCC(=O)O[C@H]1CC[C@H]2[C@@H]3CCC4=CC(=O)CC[C@]4(C)[C@H]3CC[C@]12C` [TESTOSTERONE PROPIONATE], the concentration at half-maximal activity (AC50) in assay [1] was over 10 µM; in assay [2] it was over 10 µM; at Motilin receptor, over 10 µM; at Melanocortin receptor 3, over 10 µM; in [3], over 30 µM; in assay [4], over 10 µM. Further, the AC50 was over 10 µM in assay [5]; over 10 µM in assay [6]; over 10 µM at B2 bradykinin receptor; over 30 µM at D(3) dopamine receptor; over 10 µM at Adenosine receptor A2a; over 10 µM in assay [7]. For the same compound, the figures for the AC50 (in [8]; in [9]; at Vasopressin V2 receptor) were over 10 µM, over 30 µM and over 10 µM, respectively.
With `Cc1cc2cc3c(C)cc(=O)oc3c(C)c2o1` [TRIOXSALEN], the AC50 in [1] is over 10 µM; in assay [2], 0.72 µM; at Motilin receptor it was over 10 µM; at Melanocortin receptor 3 it was over 10 µM; in [3] it was over 30 µM; in assay [4], over 10 µM. The half-maximal activity concentration (AC50) in assay [5] is over 10 µM; in assay [6], over 10 µM; on B2 bradykinin receptor it was over 10 µM; at D(3) dopamine receptor, over 30 µM; at Adenosine receptor A2a, 6.7 µM; in assay [7], over 10 µM. The concentration at half-maximal activity (AC50) in assay [8] was over 10 µM; in [9] it was over 30 µM; at Vasopressin V2 receptor it was over 10 µM.
As for `CC(C)[C@H](N)C(=O)OCC(CO)OCn1cnc2c(=O)nc(N)[nH]c21` (stereo not given in full) [VALGANCICLOVIR], the concentration at half-maximal activity (AC50) (in [1]; in [2]; on Motilin receptor; on Melanocortin receptor 3; in assay [3]; in assay [4]) was over 30 µM in each case. For the same compound, the half-maximal activity concentration (AC50) (in [5]; in [6]; at B2 bradykinin receptor; on D(3) dopamine receptor; at Adenosine receptor A2a; in assay [7]) was over 30 µM in each case. The concentration at half-maximal activity (AC50) (in assay [8]; in assay [9]; at Vasopressin V2 receptor) was over 30 µM throughout.
As for `CCC(C)C(CC)C(N)=O` (stereo not given) [VALNOCTAMIDE], the AC50 (in assay [1]; in assay [2]; on Motilin receptor; on Melanocortin receptor 3; in assay [3]; in assay [4]) was over 30 µM each time. Further, the concentration at half-maximal activity (AC50) (in assay [5]; in assay [6]; on B2 bradykinin receptor; at D(3) dopamine receptor; at Adenosine receptor A2a; in assay [7]) was over 30 µM in each case. For the same compound, the half-maximal activity concentration (AC50) (in [8]; in [9]; on Vasopressin V2 receptor) was over 30 µM throughout.
`CCCC(CCC)C(N)=O` [VALPROMIDE]: the AC50 in assay [1] was over 10 µM; in assay [2], over 10 µM; on Motilin receptor it was over 10 µM; on Melanocortin receptor 3 it was over 30 µM; in [3] it was over 30 µM; in [4] it was over 30 µM. Further, the AC50 is over 30 µM in [5]; over 30 µM in [6]; over 30 µM on B2 bradykinin receptor; over 30 µM on D(3) dopamine receptor; over 30 µM on Adenosine receptor A2a; over 10 µM in assay [7]. Besides, the concentration at half-maximal activity (AC50) (in assay [8]; in assay [9]; at Vasopressin V2 receptor) was over 30 µM each time.
